Measurements reported in publication PMC12583704 (Signal Transduction and Targeted Therapy, 2025).

Experiment: Phase 1 study NCT03594422: adverse events graded by NCI CTCAE v4.03
Type: in vivo, human
Procedure: Part 1 was a dose-escalation study to determine the recommended phase 2 dose (RP2D) in solid tumors. […] The initial design was a 3 + 3 dose escalation from 20 mg, but the protocol was amended to randomly enroll and assign patients to starting doses of 30, 40, and 50 mg on the basis of safety data acquired in the CML trial.[20] […] An interactive web response system was used for randomization. Part 2 was a nonrandomized study focusing on patients with SDH-deficient GISTs. […] On the basis of preliminary data from adult patients, adolescent patients with advanced wild-type GISTs were also included in Part 2. The dosage for adolescents was adjusted according to their body weights.
AEs were evaluated at each follow-up visit: on Days 1, 8, 15, and 22 during Cycles 1 and 2; and on Days 1 and 15 in Cycle 3 and all subsequent cycles, up to 30 days after the final dose. All AEs were graded according to the National Cancer Institute Common Terminology Criteria for Adverse Events v4.03. Clinical laboratory investigations for routine blood examinations and serum chemistry parameters were performed during every cycle (on Day 1), during Cycles 1 and 2 (on Days 8, 15, and 22), and 30 days after the last dose of treatment. Urinalysis, coagulation, cardiac troponin I/T, lipase, amylase, and electrocardiographic evaluations were conducted at baseline; during Cycles 1 and 2 (on Days 1 and 15); during Cycles 3, 5, 7, and 9; every three cycles after Cycle 9 (on Day 1); and 14 days after the last dose of treatment. All patients underwent tumor imaging for response assessment via computed tomography or magnetic resonance imaging at screening and every two cycles (8 weeks) until progression or discontinuation. Target and nontarget lesions were assessed per the Response Evaluation Criteria in Solid Tumors version 1.1 (RECIST v1.1).

## Cc1ccc(C(=O)Nc2ccc(CN3CCN(C)CC3)c(C(F)(F)F)c2)cc1C#Cc1cnc2[nH]ncc2c1 [Olverembatinib, 3-[(1H-pyrazolo[3,4-b]pyridin-5-yl)ethynyl]-4-methyl-N-{4-[(4-methylpiperazin-1-yl)methyl]-3-(trifluoromethyl)phenyl]benzamide]
40 mg (n = 32), Grade 3-5
  TEAE: Constipation: 0 n (%)
  TEAE: Fatigue: 1 (3.1) n (%)
  TEAE: Hyperuricemia: 0 n (%)
  TEAE: Hypoalbuminemia: 0 n (%)
  TEAE: Leukocyte count increased: 0 n (%)
  TEAE: Melanocytic nevus: 0 n (%)
  TEAE: Neutrophil count increased: 0 n (%)
  TEAE: Pyrexia: 0 n (%)
  TEAEs: 12 (37.5) n (%)
  TRAE: ALT increased: 0 n (%)
  TRAE: AST increased: 0 n (%)
  TRAE: Anemia: 0 n (%)
  TRAE: Blood creatinine increased: 0 n (%)
  TRAE: Constipation: 0 n (%)
  TRAE: Fatigue: 1 (3.1) n (%)
  TRAE: Hypoalbuminemia: 0 n (%)
  TRAE: Leukocyte count increased: 0 n (%)
  TRAE: Melanocytic nevus: 0 n (%)
  TRAE: Neutrophil count increased: 0 n (%)
  TRAE: Platelet count increased: 0 n (%)
  TRAE: Pyrexia: 0 n (%)
50 mg (n = 16), Any grade
  TEAE: Abdominal pain: 3 (18.8) n (%)
  TEAE: Alanine aminotransferase increased: 6 (37.5) n (%)
  TEAE: Anemia: 8 (50.0) n (%)
  TEAE: Aspartate aminotransferase increased: 10 (62.5) n (%)
  TEAE: C-reactive protein increased: 4 (25.0) n (%)
  TEAE: Constipation: 7 (43.8) n (%)
  TEAE: Fatigue: 5 (31.3) n (%)
  TEAE: Hyperuricemia: 5 (31.3) n (%)
  TEAE: Hypoalbuminemia: 5 (31.3) n (%)
  TEAE: Leukocyte count increased: 8 (50.0) n (%)
  TEAE: Melanocytic nevus: 4 (25.0) n (%)
  TEAE: Neutrophil count increased: 6 (37.5) n (%)
  TEAE: Pyrexia: 6 (37.5) n (%)
  TEAEs: 16 (100.0) n (%)
  TRAE: ALT increased: 5 (31.3) n (%)
  TRAE: AST increased: 6 (37.5) n (%)
  TRAE: Anemia: 4 (25.0) n (%)
  TRAE: Blood creatinine increased: 1 (6.3) n (%)
  TRAE: Constipation: 5 (31.3) n (%)
  TRAE: Fatigue: 5 (31.3) n (%)
  TRAE: Hypoalbuminemia: 3 (18.8) n (%)
  TRAE: Leukocyte count increased: 8 (50.0) n (%)
  TRAE: Melanocytic nevus: 4 (25.0) n (%)
  TRAE: Neutrophil count increased: 6 (37.5) n (%)
  TRAE: Platelet count increased: 2 (12.5) n (%)
  TRAE: Pyrexia: 4 (25.0) n (%)
50 mg (n = 16), Grade 3-5
  TEAE: Abdominal pain: 0 n (%)
  TEAE: Alanine aminotransferase increased: 2 (12.5) n (%)
  TEAE: Anemia: 1 (6.3) n (%)
  TEAE: Aspartate aminotransferase increased: 2 (12.5) n (%)
  TEAE: C-reactive protein increased: 0 n (%)
  TEAE: Constipation: 0 n (%)
  TEAE: Fatigue: 0 n (%)
  TEAE: Hyperuricemia: 0 n (%)
  TEAE: Hypoalbuminemia: 0 n (%)
  TEAE: Leukocyte count increased: 0 n (%)
  TEAE: Melanocytic nevus: 0 n (%)
  TEAE: Neutrophil count increased: 0 n (%)
  TEAE: Pyrexia: 0 n (%)
  TEAEs: 9 (56.3) n (%)
  TRAE: ALT increased: 1 (6.3) n (%)
  TRAE: AST increased: 1 (6.3) n (%)
  TRAE: Anemia: 0 n (%)
  TRAE: Blood creatinine increased: 0 n (%)
  TRAE: Constipation: 0 n (%)
  TRAE: Fatigue: 0 n (%)
